For one data set, the system named is eggs of Trichuris suis. The experiment in a line: Dyeing of Trichuris suis eggs (TSO) with ageladine A, fluorescence microscopy with UV excitation. The protocol:
Embryonated eggs of Trichuris suis (TSO) according to specification of Ovamed GmbH. The nematode eggs are stored in the refrigerator at from 4 to 8° C. in a phosphate buffer at pH 5 with addition of potassium sorbate. For the tests, the TSO were washed several times in 1×DPBS (re-buffering) and adjusted to a concentration of 1000 TSO/ml.
Ageladine stock solution: 10 mM in MeOH (90%); 1 μl of ageladine was combined with 1000 μl of TSO suspension (see 2.5) in 15 ml tubes. The contents were mixed by gentle shaking and incubated for 10 minutes at ambient temperature in the dark.
The ISO were washed three times in DPBS after being dyed with Ageladine A (see 2.6.2). 10 μl of the samples were placed on object carriers with recesses and covered with glass covers. The object carriers were observed under the microscope Leica SP5 MP with and without UV excitation.

The conditions of data set [1]: cited from earlier work.
For data set [2], the system named is sensitive cells (for example, PC12). Particulars: cited from earlier work.
The conditions of data set [3]: cited from earlier work. This is another data set of the same source.

Consider `Nc1nc2ccnc(-c3cc(Br)c(Br)[nH]3)c2[nH]1` [ageladine A], for which the “absorption of the dye by eggs of the whipworm” value with eggs of Trichuris suis (eggs normally absorb dyes very poorly) is “very rapid”. Also, the “proportion of TSO exhibiting fluorescence after incubation with ageladine A” value in the data set with eggs of Trichuris suis (excitation 370 nm, detection 410-480 nm, 10 minutes incubation at ambient temperature) is given as “a small percentage”. Further, the “correlation between eggs marked as defective by morphological criteria and fluorescing eggs” value in the data set on eggs of Trichuris suis (optical blind test, fourteen TSO, UV excitation) is “high level of correlation”. Besides, the “fluorescence in degenerated eggs of Trichuris suis” value in the data set with eggs of Trichuris suis (ultraviolet excitation, multi-photon microscopy) is recorded as “fluoresces”. For the same compound, the “pH of greatest fluorescence” value in data set [1] (fluorescence decreases as the pH value increases) is around 4 pH. Also, the “stability of the dyeing” value in data set [1] (intensive dyes in cells, tissues, organisms) is “stable over hours and days”. Moreover, the tendency to fade entry in data set [1] (relatively long incubation times) is “scarcely has any tendency to fade”. Moreover, the toxicity entry in data set [2] (sensitive cells (for example, PC12), long incubation) was “not toxic”. In addition, in data set [2] (whipworm eggs, long incubation time), the “cell toxicity after a long incubation time” value is on record as “not cell-toxic”. For the same compound, the “membrane permeability in the charged (protonated, acidic medium) state” value in data set [3] (charged state) is “membrane-impermeable”. For the same compound, in data set [3], the membrane permeability result is given as “high level of membrane-permeability”. The “membrane permeability in the uncharged (alkaline medium) state” value in data set [3] (uncharged state) is listed as “very rapidly crosses many cell membranes”.

The values are drawn from patent US20150132788A1, “ESTABLISHING THE VIABILITY OF BIOLOGICAL SAMPLES” (Ovamed GmbH, priority 2012, published 2015).
